From publication PMC12121626, “Synthesis, characterization and biological activity of methotrexate-derived salts in lung cancer cells” (RSC Medicinal Chemistry, 2025)
Converted amounts (≈) assume the structure as drawn. Where two headings read alike, the source gives them in different places.

Tests used:
A549 = experiment: Antiproliferative activity, Cell Titer 96 Aqueous One cell proliferation assay, A549; format: cell-based, human; conditions: for IC50: A549, 48 h of incubation; for SI (A549): selectivity index, IC50 fibroblasts/IC50 A549
Procedure: (§1) Primary dermal neonatal fibroblasts (PCS-201-010) and lung adenocarcinoma cell lines (A549 and H1975) were acquired from ATCC (Manassas, VA, USA). […] All experiments were conducted at 37 °C, 5% (v/v) CO2, and 99% humidity in the dark. For simplicity, the supplemented media will be referred from now on as DMEM. NSCLC cell lines used in this work represent two different cancer models with different driver mutations[27] (Table 1). […] Doxorubicin (1.5 μM) was used as a positive control and 0.1% (v/v) DMSO was used as a vector control in all biological replicates. After 48 h of incubation, cell viability was measured using the Cell Titer 96® Aqueous One solution cell proliferation assay (Promega, Madison, WI, USA) according to the manufacturer's instructions and procedures described previously.[26,28] The absorbance of the formazan produced was quantified with a Tecan microplate reader (Infinite M200 (Tecan, Mannedorf, Switzerland)) and analysis of the dose–response curves to determine the relative IC50 was performed with GraphPad Prism 8 software (GraphPad Software, La Jolla, CA, USA). The selectivity index (IC50 fibroblasts/IC50 lung cancer cell line) was used as a measurement of the specificity of MTX salts for lung cancer cells.

[1] = tested on: normal primary human dermal fibroblast; experiment: Cytotoxic effect in normal cells, Cell Titer 96 Aqueous One cell proliferation assay, fibroblasts; format: cell-based; conditions: 48 h of incubation
Procedure: as §1

[2] = Solubility in water, visually determined
Procedure: To study the solubility and stability of the MTX salts, two different assays were performed. To measure the solubility, 1 μL of water was added dropwise to 1 mg of MTX salt and the solubility was visually determined.

H1975 = experiment: Antiproliferative activity, Cell Titer 96 Aqueous One cell proliferation assay, H1975; format: cell-based, human; conditions: for IC50: H1975, 48 h of incubation; for SI (H1975): selectivity index, IC50 fibroblasts/IC50 H1975
Procedure: as §1

A549 cells = experiment: Evaluation of apoptosis, annexin V/PI double staining, flow cytometry; format: cell-based, human; conditions: A549, 48 h of exposure to IC50 (DOX 1.5 μM)
Procedure: A549 cells were seeded on 6-well plates at a density of 2 × 10^5 cells per well and incubated for 48 h with the IC50 of salts ([C12mim]2[MTX], [C10mim]2[MTX], and [C10-3-picoline]2[MTX]) previously determined. Doxorubicin (1.5 μM) was used as a positive control and 0.1% (v/v) DMSO as a vector control. Cells were then detached from the wells and double stained using dead cell apoptosis annexin V (Thermo Fisher Scientific) according to the manufacturer's instructions. The percentage of live cells (unstained), cells in initial apoptosis (stained with annexin V-Alexa Fluor 488), cells in late apoptosis (double stained with annexin V-Alexa Fluor 488 and propidium iodide), or cells in necrosis (stained with propidium iodide) were quantified using an Attune acoustic focusing flow cytometer and the respective software (Thermo Fisher Scientific).
Cellular apoptosis is a process that leads to cell death. Using annexin V and propidium iodide (PI), cells could be divided into live cells, early apoptotic cells, late apoptotic cells, or necrotic cells, based on the differences in plasma membrane of these different stages. PI only enters cells with a permeabilized and/or compromised membrane (late apoptotic and necrotic cells, respectively), while annexin V-FITC binds to phosphatidylserine that translocates from the inner side of the plasma membrane to the outer side, staining cells in initial/late apoptosis.[31]

[3] = design: method as in doi:10.1016/j.trac.2017.09.009; conditions: cited from earlier work
[4] = UV-vis spectroscopy stability assay in DMEM biological medium; format: physicochemical; conditions: 48 h period of the biological assays
[5] = design: method as in PMID 23292116; conditions: low solubility and low permeability; cited from earlier work

CN(Cc1cnc2nc(N)nc(N)c2n1)c1ccc(C(=O)NC(CCC(=O)[O-])C(=O)[O-])cc1.Cn1cc[n+](CCCCCCCCCCCCn2cc[n+](C)c2)c1 (stereo not drawn) [[MIMC12MIM][MTX]]
IC50 (A549): 12.4 ± 1.09 µM

CCCCCCCCn1cc[n+](C)c1.CCCCCCCCn1cc[n+](C)c1.CN(Cc1cnc2nc(N)nc(N)c2n1)c1ccc(C(=O)NC(CCC(=O)[O-])C(=O)[O-])cc1 (stereo not drawn) [[C8mim]2[MTX]]
IC50 (A549): > 50 µM

CCn1cc[n+](C)c1 [[C2MIM][Br], reference compound]
IC50 (A549): > 50 µM

CN(Cc1cnc2nc(N)nc(N)c2n1)c1ccc(C(=O)N[C@@H](CCC(=O)[O-])C(=O)[O-])cc1.[Na+].[Na+] [[Na]2[MTX]] [reference compound]
IC50 [1]: > 50 µM | Solubility ([2]; in water at room temperature): 99.0 mg/mL | IC50 (H1975): > 50 µM | IC50 (A549): 3.82 ± 0.58 µM

CN(Cc1cnc2nc(N)nc(N)c2n1)c1ccc(C(=O)N[C@@H](CCC(=O)[O-])C(=O)[O-])cc1.C[N+](C)(C)CCO.C[N+](C)(C)CCO [[Choline]2[MTX]]
Increase in solubility in water [2]: 10 fold | Solubility [2]: 1087.0 mg/mL | IC50 (A549): > 50 µM

COc1cccc2c1C(=O)c1c(O)c3c(c(O)c1C2=O)C[C@@](O)(C(=O)CO)C[C@@H]3O[C@H]1C[C@H](N)[C@H](O)[C@H](C)O1 [DOX, Doxorubicin, reference compound]
Early apoptosis (A549 cells): 9.3 ± 7.1% | Late apoptosis (A549 cells): 65.25 ± 30.4% | Live cells (A549 cells): 1.7 ± 1.8% | Necrosis (A549 cells): 23.7 ± 26.0%

CCCCCCCCCCCCn1cc[n+](C)c1.[Br-] [[C12mim][Br], reference compound]
IC50 [1]: 8.3 ± 0.92 µM | IC50 (H1975): 10.2 ± 1.01 µM | SI (H1975) (H1975): 0.8 | IC50 (A549): 0.6 ± 0.21 µM | SI (A549) (A549): 13.83

CCCCCCCCCCn1cc[n+](C)c1.CCCCCCCCCCn1cc[n+](C)c1.CN(Cc1cnc2nc(N)nc(N)c2n1)c1ccc(C(=O)N[C@@H](CCC(=O)[O-])C(=O)[O-])cc1 [[C10mim]2[MTX]]
IC50 [1]: 7.61 ± 0.88 µM | Solubility ([2]; in water at room temperature): 312.5 mg/mL | Early apoptosis (A549 cells): 14.9 ± 5.0% | Late apoptosis (A549 cells): 10.7 ± 8.1% | Live cells (A549 cells): 73.2 ± 5.0% | Necrosis (A549 cells): 1.1 ± 1.8% | IC50 (H1975): 14.9 ± 1.17 µM | SI (H1975) (H1975): 0.5 | IC50 (A549): 1.71 ± 0.23 µM | SI (A549) (A549): 4.5

CCCCCCn1cc[n+](C)c1.CCCCCCn1cc[n+](C)c1.CN(Cc1cnc2nc(N)nc(N)c2n1)c1ccc(C(=O)NC(CCC(=O)[O-])C(=O)[O-])cc1 (stereo not drawn) [[C6mim]2[MTX]]
IC50 (A549): > 50 µM

CN(Cc1cnc2nc(N)nc(N)c2n1)c1ccc(C(=O)N[C@@H](CCC(=O)O)C(=O)O)cc1 [MTX, Methotrexate]
pKa (first acidic proton, carboxylic acid) [3]: 2.9 | pKa (second acidic proton, carboxylic acid) [3]: 4.6 | Stability in DMEM biological medium [4]: stability was retained | Solubility [2]: 0.01 mg/mL (≈ 22 µM) | Class in the biopharmaceutical classification system [5]: class IV | IC50 (A549; Homo sapiens): > 50 µM

CCCCCCCCCC[n+]1cccc(C)c1.[Br-] [[C10-3-picoline][Br], reference compound]
IC50 [1]: > 50 µM | IC50 (H1975): 29.3 ± 1.47 µM | IC50 (A549): 1.03 ± 0.01 µM | SI (A549) (A549): 48.5

CCCCCCCCCCCCn1cc[n+](C)c1.CCCCCCCCCCCCn1cc[n+](C)c1.CN(Cc1cnc2nc(N)nc(N)c2n1)c1ccc(C(=O)N[C@@H](CCC(=O)[O-])C(=O)[O-])cc1 [[C12mim]2[MTX]]
Solubility ([2]; in water at room temperature): 238.1 mg/mL | Early apoptosis (A549 cells): 16.7 ± 7.3% | Late apoptosis (A549 cells): 10.2 ± 8.3% | Live cells (A549 cells): 72.9 ± 4.1% | Necrosis (A549 cells): 0.1 ± 0.2% | IC50 (H1975): 2.72 ± 0.43 µM | SI (H1975) (H1975): 0.6 | IC50 (A549): 0.55 ± 0.25 µM | SI (A549) (A549): 2.9

Cc1ccc[n+](CCO)c1 [[C2OH 3-picoline][Br], reference compound]
IC50 (A549): > 50 µM

CCn1cc[n+](C)c1.CCn1cc[n+](C)c1.CN(Cc1cnc2nc(N)nc(N)c2n1)c1ccc(C(=O)NC(CCC(=O)[O-])C(=O)[O-])cc1 (stereo not drawn) [[C2MIM]2[MTX]]
Solubility ([2]; in water at room temperature): 500.0 mg/mL | IC50 (A549): > 50 µM

CCCCCCCCCC[N+](C)(C)CCO.CCCCCCCCCC[N+](C)(C)CCO.CN(Cc1cnc2nc(N)nc(N)c2n1)c1ccc(C(=O)N[C@@H](CCC(=O)[O-])C(=O)[O-])cc1 [[N10,1,1,2OH]2[MTX]]
IC50 (A549): 19.2 ± 1.28 µM

CCCCCCCCCC[n+]1cccc(C)c1.CCCCCCCCCC[n+]1cccc(C)c1.CN(Cc1cnc2nc(N)nc(N)c2n1)c1ccc(C(=O)N[C@@H](CCC(=O)[O-])C(=O)[O-])cc1 [[C10-3-picoline]2[MTX]]
IC50 [1]: 10.6 ± 1.03 µM | Solubility ([2]; in water at room temperature): 138.9 mg/mL | Early apoptosis (A549 cells): 14.9 ± 6.5% | Late apoptosis (A549 cells): 9.4 ± 5.6% | Live cells (A549 cells): 75.3 ± 3.0% | Necrosis (A549 cells): 0.02 ± 0.02% | IC50 (H1975): 29.1 ± 1.46 µM | SI (H1975) (H1975): 0.4 | IC50 (A549): 0.94 ± 0.03 µM | IC50 in the cancer cell line relative to [Na]2[MTX] (A549; A549, compared to [Na]2[MTX]): 4.06 fold | SI (A549) (A549): 11.3

CN(Cc1cnc2nc(N)nc(N)c2n1)c1ccc(C(=O)NC(CCC(=O)[O-])C(=O)[O-])cc1.C[n+]1ccn(CCO)c1.C[n+]1ccn(CCO)c1 (stereo not drawn) [[C2OHmim]2[MTX]]
Solubility ([2]; in water at room temperature): 476.2 mg/mL | IC50 (A549): > 50 µM

CN(Cc1cnc2nc(N)nc(N)c2n1)c1ccc(C(=O)N[C@@H](CCC(=O)[O-])C(=O)[O-])cc1.Cc1ccc[n+](CCO)c1.Cc1ccc[n+](CCO)c1 [[C2OH-3-picoline]2[MTX]]
Solubility ([2]; in water at room temperature): 192.3 mg/mL | IC50 (A549): > 50 µM

CCCCCCCCCCn1cc[n+](C)c1.[Br-] [[C10mim][Br], reference compound]
IC50 [1]: > 50 µM | IC50 (H1975): 19.2 ± 1.28 µM | IC50 (A549): 1.1 ± 0.02 µM | SI (A549) (A549): 45.5

CCCCCCCCCCCC[N+](C)(C)CCO.CCCCCCCCCCCC[N+](C)(C)CCO.CN(Cc1cnc2nc(N)nc(N)c2n1)c1ccc(C(=O)NC(CCC(=O)[O-])C(=O)[O-])cc1 (stereo not drawn) [[N12,1,1,2OH]2[MTX]]
IC50 (A549): 8.55 ± 0.93 µM

C[n+]1ccn(CCO)c1 [[C2OHmim][Br], reference compound]
IC50 (A549): > 50 µM

C[N+](C)(C)CCO.[Cl-] [[Choline][Cl], reference compound]
IC50 (A549): > 50 µM
